Experimental data as given in ChEMBL document CHEMBL1131797, “4-hydroxy-5,6-dihydro-2H-pyran-2-ones.3. Bicyclic and hetero-aromatic ring systems as 3-position scaffolds to bind to S1' and S2' of the HIV-1 protease enzyme” (Bioorg Med Chem Lett, 1999).

Columns and labels:
[1] = biological target: T1, Human immunodeficiency virus type 1 protease (Human immunodeficiency virus 1, UniProt Q72874); assay: Inhibitory concentration against human immunodeficiency virus type 1(HIV-1) protease at pH 4.7
[2] = tested on: CCRF-CEM; assay: Antiviral activity was evaluated against HIV-infected CEM cells; type: functional, cell-based; conditions: Homo sapiens
[3] = biological target: T1, Human immunodeficiency virus type 1 protease; assay: Inhibitory activity was evaluated against human immunodeficiency virus type 1(HIV-1) protease at pH 6.2
[4] = biological target: T1, Human immunodeficiency virus type 1 protease; assay: Inhibitory activity was evaluated against human immunodeficiency virus type 1(HIV-1) protease at pH 4.7

| IC50 [1] [nM] | EC50 [2] [nM] | IC50 [3] [nM] | Ki [4] [nM] | Structure (SMILES) |
| --- | --- | --- | --- | --- |
| 74 | > 100000 | – | – | Cc1c(SC2=C(O)OC(CCc3ccccc3)(c3ccccc3)CC2=O)sc2ccccc12 (configuration not stated) |
| 195 | > 100000 | – | – | Cc1ccsc1SC1=C(O)OC(CCc2ccccc2)(c2ccccc2)CC1=O (configuration not stated) |
| 9 | 22000 | 130 | – | CC(C)(C)c1cc2c(cc1SC1=C(O)OC(CCc3ccccc3)(c3ccccc3)CC1=O)CCC2 (configuration not stated) |
| – | 46000 | – | – | Cc1ccc(C(C)(C)C)c(SC2=C(O)OC(CCc3ccccc3)(c3ccccc3)CC2=O)c1 (configuration not stated) |
| – | 500 | 1 | – | Cc1cc(SC2=C(O)O[C@](CCc3ccc(O)cc3)(C(C)C)CC2=O)c(C(C)(C)C)cc1CO |
| 363 | > 100000 | – | – | O=C1CC(CCc2ccccc2)(c2ccccc2)OC(O)=C1Sc1cc2ccccc2s1 (configuration not stated) |

Further lines, the molecule ahead of its results:

| Structure (SMILES) | IC50 [1] [nM] | EC50 [2] [nM] | IC50 [3] [nM] | Ki [4] [nM] |
| --- | --- | --- | --- | --- |
| CC(C)(C)c1c(SC2=C(O)OC(CCc3ccccc3)(c3ccccc3)CC2=O)sc2ccccc12 (configuration not stated) | 7 | > 66000 | 17 | – |
| CC(C)(C)c1cc2c(cc1SC1=C(O)OC(CCc3ccccc3)(c3ccccc3)CC1=O)CCCC2 (configuration not stated) | 28 | 33000 | – | – |
| CC(C)[C@]1(CCc2ccc(O)cc2)CC(=O)C(Sc2sc3ccccc3c2C(C)(C)C)=C(O)O1 | – | 1000 | < 1 | < 0.1 |
| CC(C)(C)c1c(SC2=C(O)OC(CCc3ccccc3)(c3ccccc3)CC2=O)oc2ccccc12 (configuration not stated) | 11 | 31000 | 210 | – |
| CCc1c(SC2=C(O)OC(CCc3ccccc3)(c3ccccc3)CC2=O)sc2ccccc12 (configuration not stated) | 28 | > 65000 | – | – |
| O=C1CC(CCc2ccccc2)(c2ccccc2)OC(O)=C1Sc1cccs1 (configuration not stated) | 290 | > 73000 | – | – |
| CC(C)(C)n1c(SC2=C(O)OC(CCc3ccccc3)(c3ccccc3)CC2=O)nc2ccccc21 (configuration not stated) | 505 | 61000 | – | – |
| CC(C)(C)c1oc2ccccc2c1SC1=C(O)OC(CCc2ccccc2)(c2ccccc2)CC1=O (configuration not stated) | 18 | 10000 | 211 | – |
